# Reference: US20230320984A1, “TOFACITINIB-CONTAINING ANHYDROUS ELASTOMER-BASED GEL FORMULATIONS” (Vyne Therapeutics Inc., priority 2022, published 2023)
# Counter-ions that a name gives are not always drawn. Like-named read-outs stand apart in the source and are kept apart here.
# What was measured:
# [1] = tested on: Hartley-derived albino guinea pigs; settings: for test animals with erythema scores of 1 / test animals with erythema scores of 2: 0.1% w/v DNCB challenge
# Procedure: A DNCB positive control group consisting of 10 DNCB test and 10 DNCB control guinea pigs are included in this study. The animals are treated as below with the DNCB test animals receiving 0.1% w/v DNCB in acetone and ethanol for induction and 0.1% and 0.05% w/v DNCB in acetone and ethanol for challenge.
# The Test Article, placebo control, and the appropriate positive control articles are administered dermally for approximately 6 hours once on Days 0, 7, and 14 for inductions 1 to 3. The animals are reclipped on the day prior to dosing or induction to visualize the test sites clearly for grading. Following a 2-week rest period, a challenge (Day 28) is performed for Test Article group and placebo group on the same animal but on a different test site than the induction site. During the challenge phase the 20 Test Article group and 10 common challenge control guinea pigs are topically treated with Test Article and the 20 placebo control article and the same 10 common challenge control guinea pigs (separate test sites) are topically treated with placebo. Challenge responses for each of these groups are compared with those of the common challenge control animals. If challenge results are considered indefinite a rechallenge is conducted.
# On the day prior to the first DNCB induction or dose administration (Day −1), the hair is removed from the left side of the test animals with a small animal clipper. Care is taken to avoid abrading the skin during the clipping procedures. On the day following clipping (Day 0), chambers containing the appropriate material are applied to the clipped area of the test animals and DNCB test animals. For the induction and challenge phases, a dose of 0.3 mL (or maximum volume for viscous materials) is placed on a 25 mm Hill Top Chamber® backed by adhesive tape (occlusive patch). The chambers are then applied to the clipped surface as quickly as possible.
# The application site for induction is moved when irritation persists from a previous induction exposure (to ensure the test article is not dosed on compromised skin) but remains on the left side of the animal.
# On the day prior to challenge dose administration, the test, placebo control article, challenge control, DNCB test, and DNCB challenge control animals are weighed, and the hair is removed from the right side of the animals.
# [2] = tested on: Human skin from cosmetic reduction surgery; assay: Skin penetration (IVPT), vertical diffusion cell (Method A); type: in vitro ADME
# Procedure: The skin is dosed with approx. 6 mg of formulation to achieve a dose of ˜ 10 mg/cm2. Receptor solution is collected at pre-determined intervals over the course of 24 hours and analyzed using a liquid chromatography with tandem mass spectrometry (LC-MS/MS) analytical method.
# Following 24 hours, the residual formulation is removed from the surface of the skin. The skin surface is tape-stripped up to five times to remove residual formulation and the top of the skin surface layers (Stratum Corneum). The epidermis is then heat-separated from the dermis. The active agent is extracted from the skin layers and the amount of active agent delivered to the epidermis and dermis is then determined by LC-MS/MS.
# [3] = AD murine model: body weight
# Procedure: (§1) Atopic Dermatitis is induced by once daily application for 38 days of 100 μl of 0.5% 2,4-dinitrochlorobenzene (DNCB) solution onto the shaved back skin of mice. Starting on day 32, test formulations are administered once daily onto the shaved back skin of mice in addition to DNCB. Several measurements are taken at different time points:
# Daily from Day 32: Body weight, mortality, behaviour (scratching), general condition, AD index.
# [4] = cited from earlier work
# [5] = Solubility test of tofacitinib citrate in solvents and excipients (Method D); type: physicochemical
# Procedure: Saturated solutions of tofacitinib citrate in various solvents are generated by agitating (stirring) an excess amount of solid crystalline tofacitinib citrate in the corresponding solvent at ambient conditions. […] An additional analysis is performed after 48 hours of agitation to confirm the determined saturated concentration.
# [6] = Stability of tofacitinib citrate solution in 50 mM citrate buffer at different pH, 60° C.; type: physicochemical; design: unit not given here
# Text: In one or more embodiments the pH, is about 4, about 4.1, about 4.2, about 4.3, about 4.4, about 4.5, about 4.6, about 4.7, about 4.8, about 4.9 or about 5.
# [7] = tested on: Atopic Dermatitis induced by 2,4-dinitrochlorobenzene (DNCB); assay: AD murine model: Atopic Dermatitis Index (ADI, mADI) (Method C); type: in vivo; settings: DNCB induced mice
# Text: In the mouse model the positive control is observed to cause a marked weight loss and thinning of the skin and this can be perceived to mask the scoring observed with the other parameters and omitting it may on one level provide a clearer representation of the treatment potential of the combination since no marked weight loss or thinning is noted other than with the positive control.
# The presence of erythema/haemorrhage is scored based on the following scoring grid: • 0=no or no more erythema/haemorrhage on the skin, • 1=weak erythema/haemorrhage on the skin, • 2=moderate erythema/haemorrhage on the skin, • 3=severe erythema/haemorrhage on the skin.
# The presence of edema/thickening is scored based on the following scoring grid: • 0=no or no more edema/thickening of the skin, • 1=weak edema/thickening of the skin, • 2=moderate edema/thickening of the skin, • 3=severe edema/thickening of the skin.
# The presence of excoriation/erosion is scored based on the following scoring grid: • 0=no or no more excoriation/erosion of the skin, • 1=weak excoriation/erosion of the skin, • 2=moderate excoriation/erosion of the skin, • 3=severe excoriation/erosion of the skin.
# The presence of dryness/peeling is scored based on the following scoring grid: • 0=no or no more dryness/peeling of the skin, • 1=weak dryness/peeling of the skin, • 2=moderate dryness/peeling of the skin, • 3=severe dryness/peeling of the skin.
# Several measurements are taken at different time points: […]
# [8] = Chemical stability of formulations (Method H); type: physicochemical; settings: gel with Tofacitinib Citrate 1.0% and Fingolimod HCl 0.01% (Table 38)
# Procedure: Where another active agent such as fingolimod is present in the formulations the samples are analyzed for that active agent and its degradation products by HPLC. […] The gradient elution is employed.
# [9] = human, in vivo
# Procedure: (§2) Values below the limit of concentration are omitted from determination of geometric mean and geometric % CV.
# (§3) Frozen samples are thawed at room temperature and homogenized by vortexing. 10 μL of ISTD2 and 104, of Methanol/Water (50/50, v/v) to each sample (exception blank samples for which 20.0 μL Methanol/Water (50/50, v/v) is added) is addeded to Eppendorf tubes each containing 100 μL sample. 300 μL of acetonitrile is added to each sample and vortexed for additional 10 sec. Next samples are centrifuged for 10 min at 14000 rpm at 5° C. 310 μL of the supernatant is transferred into a 96-DWP. Samples are evaporated at approximately 40° C. (turbovap 96) under N2. 100 μL mobile phase A (see table below) is added to each sample and the 96-DWP is sealed with heatsealing foil and shaken for 5 min on a Vortex-shaker and then centrifuged for 5 min with settings 4500 rpm at 5° C. The 96-DWP is transferred to the autosampler and then the samples are diluted by 100-fold, first by adding 10 μl of sample in 904, of blank plasma/water (dilution 1/10) and then by pipetting 104, of sample diluted 10 fold in 904, of blank plasma (dilution 1/100). The diluted samples are vortexed for 5 sec and processed.
# (§4) After, the analyte is separated on a Luna Omega Polar C18 column (50×2.1 mm, 3 μm) with gradient elution of a mobile phase composed of water/acetonitrile/ammonium formate/formic acid it is analyzed using electrospray ionization (ESI) tandem mass spectrometry (MS/MS) in the multiple reaction monitoring mode (MRM).
# clinical = settings: human, in vivo
# Procedure: as §2, §3, §4
# [10] = tested on: Atopic Dermatitis induced by DNCB; design: species or system mice; settings: mouse, in vivo
# Procedure: as §1
# Day 39: Histological analysis of skin samples, microscopic scoring of AD, blood assays, assay for pro-inflammatory cytokines IL-1β, IL-6, IL-18, TNF-α, IgE, and histamine assays.
# [11] = Ex 43 Table 43 (fingolimod and tofacitinib)
# [12] = Ex 42 Table 42 (fingolimod alone)
molecule,measurement,setting,value
"O=[N+]([O-])c1ccc(Cl)c([N+](=O)[O-])c1 [DNCB, 2,4-dinitrochlorobenzene]",test animals with dermal scores of 1,"[1]; 0.05% w/v DNCB challenge, 24-hour scoring interval",4/10
same,test animals with erythema scores of 1,[1]; 24-hour scoring interval,5/10
same,test animals with erythema scores of 2,[1]; 24-hour scoring interval,5/10
same,test animals with erythema scores of 1,[1]; 48-hour scoring interval,6/10
same,test animals with erythema scores of 2,[1]; 48-hour scoring interval,4/10
same,Group mean dermal score at challenge,"[1]; challenge with 0.05% w/v DNCB in acetone and ethanol, control animals 0.25",0.6
same,Group mean dermal score at challenge,"[1]; challenge with 0.1% w/v DNCB in acetone and ethanol, control animals 0.375",1.45
CCCCCCCCc1ccc(CCC(N)(CO)CO)cc1 [Fingolimod HCl 0.011%],"Dermis concentration, ng (based on the Mean)",[2]; [11],14.82 ng
same,"Epidermis concentration, ng (based on the Mean)",[2]; [11],16.21 ng
CCCCCCCCc1ccc(CCC(N)(CO)CO)cc1 [Fingolimod HCl 0.022%],"Dermis concentration, ng (based on the Mean)",[2]; [12],49.16 ng
same,"Epidermis concentration, ng (based on the Mean)",[2]; [12],37.5 ng
CCCCCCCCc1ccc(CCC(N)(CO)CO)cc1 [Fingolimod hydrochloride],tolerability (body weight),"[3]; fingolimod AD study, 0.1% w/w and 1% w/w",not well tolerated
same,solubility,[4]; ethanol,soluble
same,solubility,[4]; range from pH 1.2-4.5,freely soluble
same,solubility,[4]; water and methanol,freely soluble
C[C@@H]1CCN(C(=O)CC#N)C[C@@H]1N(C)c1ncnc2[nH]ccc12 [Tofacitinib citrate],Solubility of TOF Citrate,[5]; in 0.02% HCl,4.06 mg/g
same,Solubility of TOF Citrate,[5]; in 0.05% NaOH,ND (degraded)
same,Solubility of TOF Citrate,[5]; in Benzyl Alcohol,0.81 mg/g
same,Solubility of TOF Citrate,[5]; in DMSO,>150 mg/g
same,Solubility of TOF Citrate,[5]; in Diisopropyl adipate,0.02 mg/g
same,Solubility of TOF Citrate,[5]; in Dimethyl isosorbate,1.27 mg/g
same,Solubility of TOF Citrate,[5]; in Ethanol,0.61 mg/g
same,Solubility of TOF Citrate,[5]; in Glycerin,0.97 mg/g
same,Solubility of TOF Citrate,[5]; in Hexylene Glycol,0.25 mg/g
same,Solubility of TOF Citrate,[5]; in Isopropyl Alcohol,0.24 mg/g
same,Solubility of TOF Citrate,[5]; in Isopropyl myristate,<0.02 mg/g
same,Solubility of TOF Citrate,[5]; in MCT oil (Caprylic/capric triglycerides),<0.01 mg/g
same,Solubility of TOF Citrate,[5]; in Oleyl alcohol,0.09 mg/g
same,Solubility of TOF Citrate,[5]; in PPG-11 Stearyl ether,0.02 mg/g
same,Solubility of TOF Citrate,[5]; in Polyethylene Glycol 200,5.16 mg/g
same,Solubility of TOF Citrate,[5]; in Polyethylene Glycol 400,6.96 mg/g
same,Solubility of TOF Citrate,[5]; in Propylene Glycol,1.70 mg/g
same,Solubility of TOF Citrate,[5]; in Transcutol,2.01 mg/g
same,Solubility of TOF Citrate,[5]; in Water,2.77 mg/g
same,Imp B,"[6]; pH 4.5, 2 w",0.10
same,RRT 1.29,"[6]; pH 5, 1 w",0.09
same,RRT 1.42,"[6]; pH 5, 1 w",0.14
same,RRT 1.29,"[6]; pH 5, 2 w",0.08
CC1(C)O[C@@H]2C[C@H]3[C@@H]4CCC5=CC(=O)C=C[C@]5(C)[C@@]4(F)[C@@H](O)C[C@]3(C)[C@]2(C(=O)CO)O1 [Triamcinolone acetonide],ADI breakdown: Dryness-Peeling D39,"[7]; Example 41, D39",0.88
same,ADI breakdown: Edema-Thickening D39,"[7]; Example 41, D39",0.00
same,ADI breakdown: Erythema-Haemorrhage D39,"[7]; Example 41, D39",0.00
same,ADI breakdown: Excoriation-Erosion D39,"[7]; Example 41, D39",0.00
same,Body weight: Weight D32,"[3]; DNCB induced mice, Example 41, D32 (treatment start), mean",18.31
same,Body weight: Weight D39,"[3]; DNCB induced mice, Example 41, D39, mean",15.66
same,Mean Body Weight Change d39 − d32,"[3]; DNCB induced mice, Example 41, (+) weight gain, (−) weight loss",−2.65
C[C@@H]1CCN(C(=O)CC#N)C[C@@H]1N(C)c1ncnc2[nH]ccc12 [tofacitinib],"Assay of Tofacitinib, % LC",[8]; 2 months at 40° C.,99.2 % LC
same,"Assay of Tofacitinib, % LC",[8]; 2 months at 50° C.,98.6 % LC
same,"Assay of Tofacitinib, % LC",[8]; 3 weeks at 5° C.,99.3 % LC
same,"Assay of Tofacitinib, % LC",[8]; 3 weeks at 50° C.,99.1 % LC
same,AUC(0-12) Median,[9],1.056 ng·h/mL
same,Tmax Geomean,[9],3.00 h
same,Tmax Median,[9],3.00 h
same,AUC(0-t),clinical; AUC(0-12) Median,1.97 ng·h/mL
same,AUC(0-t),clinical; AUC(0-24) Geomean,3.21 ng·h/mL
same,AUC(0-t),clinical; AUC(0-24) Mean,4.03 ng·h/mL
same,AUC(0-t),clinical; AUC(0-24) Median,3.14 ng·h/mL
same,Tmax,clinical; Tmax Geomean,5.05 h
same,Tmax,clinical; Tmax Median,6 h
CC1(C)O[C@@H]2C[C@H]3[C@@H]4CCC5=CC(=O)C=C[C@]5(C)[C@@]4(F)[C@@H](O)C[C@]3(C)[C@]2(C(=O)CO)O1 [triamcinolone acetonide],"AD Index, Mean ADI values D 39","[7]; combination study (Example 41), D 39",0.88
Triamcinolone,skin thinner than vehicle-treated normal skin,[10],about 0.8 fold
same,"Body weight D39, Mean","[3]; mouse, in vivo",17.7 g
same,Body weight D39 mean,"[3]; mouse, in vivo",17.1 g
same,Mean Body Weight Change d39 − d32,"[3]; mouse, in vivo",−2.80
